According to ChEMBL document CHEMBL4842377, “Synthesis and biological evaluation of selective histone deacetylase 6 inhibitors as multifunctional agents against Alzheimer's disease” (Eur J Med Chem, 2021):
Activity calls are given as the source filed them. No cut-off for these calls is given here.

Columns and labels:
[1] = target: T1, Protein deacetylase HDAC6 (Homo sapiens, UniProt Q9UBN7); assay: Inhibition of human HDAC6 using fluorogenic substrate incubated for 1 hrs by fluorescence plate reader assay
T1 sequence (Q9UBN7 whole entry): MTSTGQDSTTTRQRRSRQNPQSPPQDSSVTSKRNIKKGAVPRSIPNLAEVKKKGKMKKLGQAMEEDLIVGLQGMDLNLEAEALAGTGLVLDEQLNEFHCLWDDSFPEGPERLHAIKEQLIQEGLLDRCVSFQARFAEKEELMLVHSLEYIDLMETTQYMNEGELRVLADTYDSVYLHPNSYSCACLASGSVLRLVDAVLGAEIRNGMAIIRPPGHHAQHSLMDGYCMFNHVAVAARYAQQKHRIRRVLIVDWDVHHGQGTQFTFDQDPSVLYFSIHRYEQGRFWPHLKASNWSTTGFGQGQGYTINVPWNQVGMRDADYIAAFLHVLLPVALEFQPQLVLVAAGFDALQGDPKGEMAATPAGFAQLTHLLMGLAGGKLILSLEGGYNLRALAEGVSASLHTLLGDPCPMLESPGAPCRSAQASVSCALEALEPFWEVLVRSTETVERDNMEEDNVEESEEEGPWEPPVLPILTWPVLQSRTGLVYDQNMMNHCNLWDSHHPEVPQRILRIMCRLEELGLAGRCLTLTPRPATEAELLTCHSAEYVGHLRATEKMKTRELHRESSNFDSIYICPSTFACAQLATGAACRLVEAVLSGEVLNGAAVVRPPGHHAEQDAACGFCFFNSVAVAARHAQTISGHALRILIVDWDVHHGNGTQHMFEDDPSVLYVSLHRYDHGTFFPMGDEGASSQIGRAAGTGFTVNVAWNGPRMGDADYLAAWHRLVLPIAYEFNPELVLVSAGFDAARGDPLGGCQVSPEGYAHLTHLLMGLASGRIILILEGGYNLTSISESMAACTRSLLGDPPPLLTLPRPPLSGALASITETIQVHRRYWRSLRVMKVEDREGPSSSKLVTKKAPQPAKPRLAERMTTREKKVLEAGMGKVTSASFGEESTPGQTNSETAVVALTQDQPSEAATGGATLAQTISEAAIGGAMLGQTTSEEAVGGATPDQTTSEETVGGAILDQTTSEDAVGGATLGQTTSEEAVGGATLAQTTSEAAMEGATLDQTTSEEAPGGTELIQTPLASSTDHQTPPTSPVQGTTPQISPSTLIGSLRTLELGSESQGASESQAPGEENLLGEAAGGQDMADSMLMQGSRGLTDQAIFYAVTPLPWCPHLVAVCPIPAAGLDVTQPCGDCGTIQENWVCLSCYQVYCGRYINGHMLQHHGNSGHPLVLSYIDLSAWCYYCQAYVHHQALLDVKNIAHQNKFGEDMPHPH

SH-SY5Y [2] = assay: Neuroprotective activity against Cu2+/amyloid beta (1 to 42)-induced toxicity in human SH-SY5Y cells assessed as increase in cell viability at 3 uM after 24 hrs by MTT assay (reference value: 47.2%); format: functional
[3] = Inhibition of Cu2+ induced amyloid beta (1 to 42 residues) (unknown origin) aggregation by measuring reduction in fluorescence intensity at 20 uM after 24 hrs by thioflavin-T fluorescence method relative to control
[4] = Disaggregation of Cu2+ induced amyloid beta (1 to 42 residues) (unknown origin) aggregation measuring reduction in fluorescence intensity at 20 uM after 24 hrs by thioflavin-T fluorescence method relative to control; design: scale not given: the % may be the effect or the level left
SH-SY5Y [5] = assay: Induction of neurogenesis in human SH-SY5Y cells assessed as induction of GAP-43 mRNA expression at 10 uM measured after 24 hrs by RT-PCR analysis relative to control; format: functional
SH-SY5Y [6] = assay: Induction of neurogenesis in human SH-SY5Y cells assessed as induction of MAP2 mRNA expression at 10 uM measured after 24 hrs by RT-PCR analysis relative to control; format: functional
SH-SY5Y [7] = assay: Induction of neurogenesis in human SH-SY5Y cells assessed as induction of N-myc mRNA expression at 10 uM measured after 24 hrs by RT-PCR analysis relative to control; format: functional
Histone deacetylase 2 = Histone deacetylase 2 (Homo sapiens, UniProt Q92769); assay: Inhibition of human HDAC2 using fluorogenic substrate incubated for 1 hrs by fluorescence plate reader assay
Histone deacetylase 2, sequence (Q92769 whole entry): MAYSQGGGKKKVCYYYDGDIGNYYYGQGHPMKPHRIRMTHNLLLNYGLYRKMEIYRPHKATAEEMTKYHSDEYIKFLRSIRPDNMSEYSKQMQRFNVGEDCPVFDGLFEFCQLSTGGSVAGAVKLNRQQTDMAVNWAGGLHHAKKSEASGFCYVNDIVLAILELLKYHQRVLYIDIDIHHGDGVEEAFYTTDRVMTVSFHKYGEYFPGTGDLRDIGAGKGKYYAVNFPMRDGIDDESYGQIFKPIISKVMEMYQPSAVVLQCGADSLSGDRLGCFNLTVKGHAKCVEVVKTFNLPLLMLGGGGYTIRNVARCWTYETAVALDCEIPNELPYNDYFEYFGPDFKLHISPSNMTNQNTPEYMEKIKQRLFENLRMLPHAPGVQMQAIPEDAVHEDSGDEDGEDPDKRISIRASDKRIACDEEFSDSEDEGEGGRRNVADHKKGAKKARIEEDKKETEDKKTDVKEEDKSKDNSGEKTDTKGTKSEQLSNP

SH-SY5Y [8] = assay: Induction of neurogenesis in human SH-SY5Y cells assessed as fold induction of N-myc mRNA expression at 10 uM measured after 24 hrs by RT-PCR analysis relative to retinoic acid; format: functional
Histone deacetylase 11 = target: T2, Histone deacetylase 11 (Homo sapiens, UniProt Q96DB2); assay: Inhibition of human HDAC11 using fluorogenic substrate incubated for 1 hrs by fluorescence plate reader assay
T2 sequence (Q96DB2 whole entry): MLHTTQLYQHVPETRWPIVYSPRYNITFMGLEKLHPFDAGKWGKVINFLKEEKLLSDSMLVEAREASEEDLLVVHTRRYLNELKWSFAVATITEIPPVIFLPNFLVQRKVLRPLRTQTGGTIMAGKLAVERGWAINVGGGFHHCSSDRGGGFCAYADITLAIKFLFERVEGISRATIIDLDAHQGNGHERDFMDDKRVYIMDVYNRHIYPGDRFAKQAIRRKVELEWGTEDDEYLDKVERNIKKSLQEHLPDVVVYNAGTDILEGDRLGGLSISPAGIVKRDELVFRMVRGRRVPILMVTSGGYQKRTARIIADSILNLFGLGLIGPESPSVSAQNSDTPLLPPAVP

SH-SY5Y [9] = assay: Cytotoxicity against human SH-SY5Y cells assessed as cell viability incubated for 24 hrs by MTT assay; format: cell-based
Histone deacetylase 8 = target: T3, Histone deacetylase 8 (Homo sapiens, UniProt Q9BY41); assay: Inhibition of human HDAC8 using fluorogenic substrate incubated for 1 hrs by fluorescence plate reader assay
T3 sequence (Q9BY41 whole entry): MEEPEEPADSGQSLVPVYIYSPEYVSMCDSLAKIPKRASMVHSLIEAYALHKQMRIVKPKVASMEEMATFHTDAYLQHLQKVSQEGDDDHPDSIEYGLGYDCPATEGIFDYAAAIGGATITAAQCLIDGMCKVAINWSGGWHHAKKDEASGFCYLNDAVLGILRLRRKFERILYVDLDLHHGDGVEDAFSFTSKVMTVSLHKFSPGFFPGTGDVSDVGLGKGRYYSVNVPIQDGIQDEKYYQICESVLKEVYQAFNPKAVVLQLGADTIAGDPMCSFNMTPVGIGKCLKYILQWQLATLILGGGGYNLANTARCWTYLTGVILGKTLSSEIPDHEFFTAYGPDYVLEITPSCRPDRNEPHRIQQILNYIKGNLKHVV

Histone deacetylase 4 = Histone deacetylase 4 (Homo sapiens, UniProt P56524); assay: Inhibition of human HDAC4 using fluorogenic substrate incubated for 1 hrs by fluorescence plate reader assay
Histone deacetylase 4, sequence (P56524 whole entry): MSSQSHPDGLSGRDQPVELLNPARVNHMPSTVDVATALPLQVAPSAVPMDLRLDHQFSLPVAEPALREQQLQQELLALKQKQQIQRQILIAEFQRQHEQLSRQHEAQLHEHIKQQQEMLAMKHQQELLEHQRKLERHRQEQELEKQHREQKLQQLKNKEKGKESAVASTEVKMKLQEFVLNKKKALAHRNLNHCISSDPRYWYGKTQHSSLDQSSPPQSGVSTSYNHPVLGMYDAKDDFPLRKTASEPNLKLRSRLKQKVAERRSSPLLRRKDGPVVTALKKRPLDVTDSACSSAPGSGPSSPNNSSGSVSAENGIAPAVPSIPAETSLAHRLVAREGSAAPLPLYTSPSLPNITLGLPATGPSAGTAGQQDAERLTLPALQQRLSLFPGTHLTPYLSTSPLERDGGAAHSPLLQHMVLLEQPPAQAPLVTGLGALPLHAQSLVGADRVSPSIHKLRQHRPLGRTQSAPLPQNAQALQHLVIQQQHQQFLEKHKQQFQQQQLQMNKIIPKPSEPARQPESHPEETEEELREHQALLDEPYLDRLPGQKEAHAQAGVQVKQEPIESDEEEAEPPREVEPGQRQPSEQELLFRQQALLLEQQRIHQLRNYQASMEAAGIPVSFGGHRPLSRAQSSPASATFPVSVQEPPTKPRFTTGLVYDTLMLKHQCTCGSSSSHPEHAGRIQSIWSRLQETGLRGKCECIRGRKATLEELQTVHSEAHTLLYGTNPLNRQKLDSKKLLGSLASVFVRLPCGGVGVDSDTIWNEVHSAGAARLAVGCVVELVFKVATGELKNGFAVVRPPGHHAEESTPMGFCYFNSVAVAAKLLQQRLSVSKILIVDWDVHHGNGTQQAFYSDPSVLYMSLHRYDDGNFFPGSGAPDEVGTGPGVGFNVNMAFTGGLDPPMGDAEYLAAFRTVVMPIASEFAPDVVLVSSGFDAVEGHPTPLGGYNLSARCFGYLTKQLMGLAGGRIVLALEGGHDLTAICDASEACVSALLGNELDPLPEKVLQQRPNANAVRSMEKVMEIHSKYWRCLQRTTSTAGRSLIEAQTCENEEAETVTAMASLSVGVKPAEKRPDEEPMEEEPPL

SH-SY5Y [10] = assay: Neuroprotective activity against amyloid beta (1 to 42)-induced cytotoxicity in human SH-SY5Y cells assessed as increase in cell viability at 3 uM after 24 hrs by MTT assay (reference value: 60.4%); format: functional
SH-SY5Y [11] = assay: Induction of neurogenesis in human SH-SY5Y cells assessed as fold induction of GAP-43 mRNA expression at 10 uM measured after 24 hrs by RT-PCR analysis relative to retinoic acid; format: functional
SH-SY5Y [12] = assay: Induction of neurogenesis in human SH-SY5Y cells assessed as fold induction of MAP2 mRNA expression at 10 uM measured after 24 hrs by RT-PCR analysis relative to retinoic acid; format: functional
[13] = target: T4, Polyamine deacetylase HDAC10 (Homo sapiens, UniProt Q969S8); assay: Inhibition of human HDAC10 using fluorogenic substrate incubated for 1 hrs by fluorescence plate reader assay
T4 sequence (Q969S8 whole entry): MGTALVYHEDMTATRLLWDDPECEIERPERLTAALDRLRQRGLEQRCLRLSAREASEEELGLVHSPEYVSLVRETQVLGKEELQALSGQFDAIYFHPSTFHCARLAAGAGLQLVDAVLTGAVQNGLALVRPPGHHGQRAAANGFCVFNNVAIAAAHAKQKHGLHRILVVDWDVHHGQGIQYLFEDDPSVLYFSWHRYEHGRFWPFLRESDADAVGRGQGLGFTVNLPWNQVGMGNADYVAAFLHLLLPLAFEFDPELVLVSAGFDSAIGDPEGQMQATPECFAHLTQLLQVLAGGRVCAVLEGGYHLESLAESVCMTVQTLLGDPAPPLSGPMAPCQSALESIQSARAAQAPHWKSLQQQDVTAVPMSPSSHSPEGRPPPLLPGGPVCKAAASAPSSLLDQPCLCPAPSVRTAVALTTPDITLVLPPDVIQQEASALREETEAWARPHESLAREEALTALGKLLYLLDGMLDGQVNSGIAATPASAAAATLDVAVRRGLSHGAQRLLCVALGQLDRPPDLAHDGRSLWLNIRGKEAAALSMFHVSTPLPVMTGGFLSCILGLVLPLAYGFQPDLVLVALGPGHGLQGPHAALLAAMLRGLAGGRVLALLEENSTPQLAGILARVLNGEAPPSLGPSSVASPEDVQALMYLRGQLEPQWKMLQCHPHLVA

Histone deacetylase 1 = Histone deacetylase 1 (Homo sapiens, UniProt Q13547); assay: Inhibition of human HDAC1 using fluorogenic substrate incubated for 1 hrs by fluorescence plate reader assay
Histone deacetylase 1, sequence (Q13547 whole entry): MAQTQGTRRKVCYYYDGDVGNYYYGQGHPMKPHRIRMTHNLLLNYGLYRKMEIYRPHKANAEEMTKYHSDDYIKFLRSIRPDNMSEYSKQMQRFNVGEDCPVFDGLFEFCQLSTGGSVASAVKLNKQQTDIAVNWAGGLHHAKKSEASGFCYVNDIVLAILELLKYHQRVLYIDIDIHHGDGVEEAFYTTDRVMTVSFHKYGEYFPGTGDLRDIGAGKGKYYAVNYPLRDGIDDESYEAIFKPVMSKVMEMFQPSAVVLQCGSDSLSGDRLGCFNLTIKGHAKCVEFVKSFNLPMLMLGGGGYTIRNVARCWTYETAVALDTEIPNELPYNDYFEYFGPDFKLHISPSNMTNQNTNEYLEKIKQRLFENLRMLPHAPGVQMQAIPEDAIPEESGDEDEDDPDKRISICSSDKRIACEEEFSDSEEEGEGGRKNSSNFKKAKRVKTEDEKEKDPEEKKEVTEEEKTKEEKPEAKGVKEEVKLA

Homo sapiens [14] = organism: Homo sapiens; assay: Selectivity ratio of IC50 for human HDAC6 to IC50 for human HDAC10
[15] = target: T5, Protein deacetylase HDAC6 (Homo sapiens) (UniProt Q9UBN7); assay: Inhibition of HDAC6 in human SH-SY5Y cells assessed as increase in acetylated alpha tubulin level measured after 24 hrs by Western blot analysis; format: cell-based; conditions: dose 0.25-1 µM
T5 sequence (whole entry): T1 sequence (Q9UBN7 whole entry)

Homo sapiens [16] = organism: Homo sapiens; assay: Selectivity ratio of IC50 for human HDAC6 to IC50 for human HDAC8
Homo sapiens [17] = organism: Homo sapiens; assay: Selectivity ratio of IC50 for human HDAC6 to IC50 for human HDAC4
SH-SY5Y [18] = assay: Induction of neurite outgrowth in human SH-SY5Y cells at 10 uM incubated for 3 days by inverted microscopy; format: functional, cell-based; conditions: time 3.0 day
Homo sapiens [19] = organism: Homo sapiens; assay: Selectivity ratio of IC50 for human HDAC6 to IC50 for human HDAC2
[20] = target: T5, Protein deacetylase HDAC6 (Homo sapiens); assay: Inhibition of HDAC6 in human SH-SY5Y cells assessed as reduction in tau phosphorylation at Ser396 residue by Western blot analysis; format: cell-based
[21] = target: T5, Protein deacetylase HDAC6 (Homo sapiens); assay: Inhibition of HDAC6 in human SH-SY5Y cells assessed as increase in acetylated histone level measured after 24 hrs by Western blot analysis; format: cell-based
Homo sapiens [22] = organism: Homo sapiens; assay: Selectivity ratio of IC50 for human HDAC6 to IC50 for human HDAC11
Homo sapiens [23] = organism: Homo sapiens; assay: Selectivity ratio of IC50 for human HDAC6 to IC50 for human HDAC1
[24] = target: T5, Protein deacetylase HDAC6 (Homo sapiens); assay: Inhibition of HDAC6 in human SH-SY5Y cells assessed as reduction in tau phosphorylation at Ser396 residue at 20 uM by Western blot analysis; format: cell-based

CCNC(=O)Cn1cc(CN2c3ccccc3Sc3ccccc32)cn1
IC50 [1]: > 1 µM

Oc1c(I)cc(Cl)c2cccnc12 [CLIOQUINOL]
Activity (SH-SY5Y [2]): 86.2%
inhibition [3]: 38.9%
Activity [4]: Active

CC1=C(/C=C/C(C)=C/C=C/C(C)=C/C(=O)O)C(C)(C)CCC1 [TRETINOIN]
Activity (SH-SY5Y [5]): 2.07
Activity (SH-SY5Y [6]): 2.13
Activity (SH-SY5Y [7]): 2.3

CNC(=O)Cn1cc(CN2c3ccccc3Sc3ccccc32)cn1
IC50 [1]: > 1 µM

Cl.O=C(NO)c1ccc(CN2c3ccccc3Sc3ccccc32)nc1
IC50 (Histone deacetylase 2): 1.96 µM
fold change (FC) (SH-SY5Y [8]): 2
IC50 (Histone deacetylase 11): 4.3 µM
Activity (SH-SY5Y [5]): 5.71
IC50 [1]: 0.00254 µM
IC50 (SH-SY5Y [9]): 115 µM
IC50 (Histone deacetylase 8): 6.12 µM
IC50 (Histone deacetylase 4): 5.63 µM
Activity (SH-SY5Y [6]): 4.79
Activity (SH-SY5Y [10]): 76.3%
Activity (SH-SY5Y [2]): 82%
fold change (FC) (SH-SY5Y [11]): 2
fold change (FC) (SH-SY5Y [12]): 2
IC50 [13]: 8.63 µM
Activity (SH-SY5Y [7]): 6.28
IC50 (Histone deacetylase 1): 0.743 µM

O=C(NO)c1ccc(CN2c3ccccc3Sc3ccccc32)nc1
Selectivity ratio (Homo sapiens [14]): 3400
inhibition [15]: Dose-Dependent Effect
Selectivity ratio (Homo sapiens [16]): 2410
Selectivity ratio (Homo sapiens [17]): 2220
Activity (SH-SY5Y [18]): Active
Selectivity ratio (Homo sapiens [19]): 772
inhibition [20]: Dose-Dependent Effect
inhibition [21]: Active
Selectivity ratio (Homo sapiens [22]): 1690
Activity [4]: 40%
Selectivity ratio (Homo sapiens [23]): 292
inhibition [24]: 50%

COc1cc(/C=C/C(=O)CC(=O)/C=C/c2ccc(O)c(OC)c2)ccc1O [CURCUMIN]
Activity (SH-SY5Y [10]): 74.6%

CN(Cc1ccc(C(=O)NO)cn1)C12CC3C[C@@](C)(C1)C[C@](C)(C3)C2
IC50 [1]: 0.835 µM

O=C(NO)c1coc(CN2c3ccccc3Sc3ccccc32)n1
IC50 [1]: 0.884 µM
